Source: publication PMC11184554, “Nature-Inspired Gallinamides Are Potent Antischistosomal Agents: Inhibition of the Cathepsin B1 Protease Target and Binding Mode Analysis” (ACS Infectious Diseases, 2024)

How the values were obtained:
SmCB1 = SmCB1 (Schistosoma mansoni, UniProt Q8MNY2, T185A/T300A); assay: SmCB1 IC50 determination with 30 min preincubation; assay type: biochemical, S. mansoni
Protocol: Inhibition measurements were performed in duplicate in 96-well microplates (100 μL assay volume) at 37 °C. SmCB1 (40 pM) was added to a mixture of the fluorogenic substrate Cbz–Phe–Arg–AMC (25 μM) and an inhibitor (0–100 μM) in 0.1 M sodium acetate, pH 5.5, containing 2.5 mM dithiothreitol and 0.01% (w/v) BRIJ 35. Substrate hydrolysis was monitored in an Infinite M1000 microplate reader (Tecan) at excitation and emission wavelengths of 360 and 465 nm, respectively, for up to 150 min. An observed first-order rate constant, kobs, was calculated at each inhibitor concentration by fitting the progress curve to the equation P = vi/kobs(1 – exp(−kobst)) + d where P is the product formation, t is the reaction time, vi is the initial velocity, and d is the offset. […] The second-order rate constant, k2nd, (and SE value) was determined by fitting the linear equation kobs = (k2nd[I])/(1 + [S]/Km), where [S] is the substrate concentration, [I] is the inhibitor concentration, and KM is the Michaelis–Menten constant. The KM value determined for SmCB1 was 25 μM. […] To determine IC50 values, SmCB1 (40 pM) was preincubated with the inhibitor (0–100 μM) for 30 min under assay conditions as described above, followed by the addition of the fluorogenic substrate Cbz–Phe–Arg–AMC (20 μM). Substrate hydrolysis was monitored for 30 min in a microplate reader as described above. The IC50 values were determined by nonlinear regression using GraFit software (Erithacus Software).

[1] = system: S. mansoni newly transformed schistosomula (NTS); assay: Phenotypic screen with newly transformed schistosomula (NTS); assay type: cell-based
Protocol: The same 19 gallinamides were screened for bioactivity against S. mansoni newly transformed schistosomula (NTS), the postinvasive parasite stage that feeds on host blood.[40] In this primary assay, the NTS were exposed to 1 and 10 μM compounds for 3 days, and the resulting phenotypic responses were graded from 0 through 4, i.e., the least to the most severe (Table 2 and Table S1). […] The effects were more pronounced after 72 h, and when the higher, 10 μM, compound concentration was used (Table S1). […] Also, compared to gallinamide A and its analogs, 3 has an additional N-terminal N-acetamide modification that further reduces bioactivity (Table 2).
Phenotypic screens employed S. mansoni newly transformed schistosomula (NTS) and adults and were carried out as described previously.[18]−[20],[42] NTS were prepared by mechanically transforming infective larvae (cercariae).[40],[42] NTS (200–300 parasites) were incubated in flat-bottomed 96-well plates in 200 μL of Basch Medium 169 containing 5% (v/v) FBS, 100 U mL^–1 penicillin and 100 μg mL^–1 streptomycin (complete Basch medium)[75] at 5% CO2 and 37 °C.[76],[77] Inhibitors were added at final concentrations of 1 and 10 μM, and changes in phenotypes were observed under an inverted microscope every 24 h for up to 72 h.
(§1) A constrained nomenclature of “descriptors”[39],[42] was used to record the multiple and dynamic changes in movement, shape, and translucence that the schistosome parasite is capable of (Table S1 for NTS and Table S3 for adults). These descriptors were then converted into an ordinal “severity score” system ranging from 0 (no effect) to 4 (maximum effect), which allows for the relative comparison of compound effects.

[2] = system: ex vivo adult mixed sex S. mansoni; assay: Phenotypic screen with ex vivo adult schistosomes; assay type: cell-based; conditions: for adult severity score: scale 0 to 4
Protocol: In the next step, the bioactive compounds gallinamide A, 1, 6, and 9 (selected for structural analyses (see below)) were phenotypically screened against adult schistosomes. Experiments were performed at 1, 2, 5, and 10 μM with ex vivo adult mixed sex S. mansoni, and the phenotypes observed over 48 h were assigned severity scores ranging from 0 to 4 (Table 3 and Table S3).
For adult schistosomes, screens were performed in 24-well plates containing four male worms and one to two female worms per well in a final volume of 2 mL of complete Basch medium. Compounds were added at the final concentrations between 1 and 10 μM. Incubations were maintained for 48 h at 37 °C under 5% CO2. Afterward, the adult worms were collected, washed in RPMI 1640 medium, and used for soluble protein extract preparation.
as §1

[3] = 1 μM compound, 24 h, scale 0 (no effect) to 4 (most severe)
[4] = 1 μM compound, 48 h, scale 0 to 4
[5] = 1 μM compound, 72 h, scale 0 to 4
[6] = 10 µM compound, 24 h, scale 0 to 4
[7] = 10 µM compound, 48 h, scale 0 to 4
[8] = 10 µM compound, 72 h, scale 0 to 4

Sequence of SmCB1 (Q8MNY2 87-340 T185A/T300A): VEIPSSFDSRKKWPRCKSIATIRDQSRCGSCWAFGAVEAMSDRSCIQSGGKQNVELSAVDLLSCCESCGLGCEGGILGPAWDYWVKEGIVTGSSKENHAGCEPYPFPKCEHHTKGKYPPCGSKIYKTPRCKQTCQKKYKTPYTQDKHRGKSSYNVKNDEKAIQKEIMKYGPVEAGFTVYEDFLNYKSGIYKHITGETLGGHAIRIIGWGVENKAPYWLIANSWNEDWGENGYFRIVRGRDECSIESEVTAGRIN

| Structure (SMILES) | schistosomula severity score [1, 3] | schistosomula severity score [1, 4] | schistosomula severity score [1, 5] | schistosomula severity score [1, 6] | schistosomula severity score [1, 7] | schistosomula severity score [1, 8] | adult phenotype descriptors ([2]; 2 h, 1 µM) | adult severity score ([2]; 2 h, 1 μM) | adult phenotype descriptors ([2]; 2 h, 2 µM) | adult severity score ([2]; 2 h, 2 μM) | adult phenotype descriptors ([2]; 2 h, 5 µM) | adult severity score ([2]; 2 h, 5 μM) | adult phenotype descriptors ([2]; 2 h, 10 µM) | adult severity score ([2]; 2 h, 10 μM) | adult phenotype descriptors ([2]; 6 h, 1 µM) | adult severity score ([2]; 6 h, 1 μM) | adult phenotype descriptors ([2]; 6 h, 2 µM) | adult severity score ([2]; 6 h, 2 μM) | adult phenotype descriptors ([2]; 6 h, 5 µM) | adult severity score ([2]; 6 h, 5 μM) | other results |
| --- | --- | --- | --- | --- | --- | --- | --- | --- | --- | --- | --- | --- | --- | --- | --- | --- | --- | --- | --- | --- | --- |
| CCC(C)C(C(=O)OC(CC(C)C)C(=O)NC(CC(C)C)C(=O)NC(C)C=CC(=O)N1C(=O)C=C(OC)C1CC(C)C)N(C)C (stereo not drawn) [compound 1] | 2 | 4 | 4 | 4 | 4 | 4 | N | 0 | N | 0 | N | 0 | N | 0 | N | 0 | N | 0 | N | 0 | IC50 (SmCB1): 92 nM; schistosomula phenotype descriptors ([1]; 1 µM compound, 24 h): R, unc; adult phenotype descriptors ([2]; 6 h, 10 µM): unc; adult severity score ([2]; 6 h, 10 μM): 1; adult phenotype descriptors ([2]; 24 h, 1 µM): N; adult severity score ([2]; 24 h, 1 μM): 0; adult phenotype descriptors ([2]; 24 h, 2 µM): N; adult severity score ([2]; 24 h, 2 μM): 0; adult phenotype descriptors ([2]; 24 h, 5 µM): N; adult severity score ([2]; 24 h, 5 μM): 0; adult severity score ([2]; 24 h, 10 μM): 4; adult phenotype descriptors ([2]; 48 h, 1 µM): N; adult severity score ([2]; 48 h, 1 μM): 0; adult phenotype descriptors ([2]; 48 h, 2 µM): unc, dark; adult severity score ([2]; 48 h, 2 μM): 2; adult phenotype descriptors ([2]; 48 h, 5 µM): unc, dark; adult severity score ([2]; 48 h, 5 μM): 2; adult severity score ([2]; 48 h, 10 μM): 4 |
| CCC(C)C(C(=O)OC(CC(C)C)C(=O)NC(CC(C)C)C(=O)NC(C)C=CC(=O)N1C(=O)C=C(OC)C1Cc1ccccc1)N(C)C (stereo not drawn) [compound 9] | 1 | 2 | 4 | 3 | 4 | 4 | N | 0 | N | 0 | unc | 1 | unc | 1 | N | 0 | N | 0 | unc | 1 | schistosomula phenotype descriptors ([1]; 1 µM compound, 48 h): Dark, R; schistosomula phenotype descriptors ([1]; 10 µM compound, 24 h): Dark, R, S; adult phenotype descriptors ([2]; 6 h, 10 µM): unc, on sides; adult severity score ([2]; 6 h, 10 μM): 2; adult phenotype descriptors ([2]; 24 h, 1 µM): N; adult severity score ([2]; 24 h, 1 μM): 0; adult phenotype descriptors ([2]; 24 h, 2 µM): N; adult severity score ([2]; 24 h, 2 μM): 0; adult phenotype descriptors ([2]; 24 h, 5 µM): unc, Dark; adult severity score ([2]; 24 h, 5 μM): 2; adult severity score ([2]; 24 h, 10 μM): 4; adult phenotype descriptors ([2]; 48 h, 1 µM): N; adult severity score ([2]; 48 h, 1 μM): 0; adult phenotype descriptors ([2]; 48 h, 2 µM): unc, dark; adult severity score ([2]; 48 h, 2 μM): 2; adult severity score ([2]; 48 h, 5 μM): 4; adult severity score ([2]; 48 h, 10 μM): 4 |
